From US20230373985A1 (Origenis Gmbh, priority 2020, published 2023)

Tests used:
Type in all cases: biochemical
[1] = biological target: T1, wt human TYK2, catalytic site (Homo sapiens, UniProt P29597); experiment: HTRF KinEASE assay, TYK2; conditions: 1 μM ATP; read-out: IC50, Activity Toward TYK2
T1 construct: wt human TYK2, catalytic site; purchased SignalChem
T1 sequence (P29597 897-1176 limits assumed): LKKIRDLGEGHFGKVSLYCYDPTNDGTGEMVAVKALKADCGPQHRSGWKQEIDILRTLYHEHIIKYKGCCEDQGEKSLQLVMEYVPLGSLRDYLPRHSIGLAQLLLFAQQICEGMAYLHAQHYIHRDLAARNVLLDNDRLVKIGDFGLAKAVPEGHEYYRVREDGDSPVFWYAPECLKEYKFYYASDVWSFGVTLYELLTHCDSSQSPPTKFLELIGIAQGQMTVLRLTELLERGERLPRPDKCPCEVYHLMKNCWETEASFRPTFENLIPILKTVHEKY
Summary of the method: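 Kinase reaction run at room temperature for at least 30 min: 2 nM TYK2 with 1 μM ATP, or 1 nM JAK2 with 100 μM ATP, each with 1 μM biotin-TK substrate. Phosphorylation detected by HTRF (60 min antibody/XL665) and evaluated from emission ratios.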

[2] = biological target: T2, wt human JAK1, catalytic site (Homo sapiens, UniProt P23458); experiment: HTRF KinEASE assay, JAK1; conditions: 2.5 μM ATP; read-out: IC50, Activity Toward JAK1
T2 construct: wt human JAK1, catalytic site; purchased ThermoFisher
Summary of the method: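 Compounds in DMSO dilution were mixed with kinase, biotin-TK substrate and ATP and reacted for ≥30 min at room temperature. Detection reagents (antibody, streptavidin-XL665) were read 60 min later as HTRF, with emission ratios analysed per KinEASE protocol.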

[3] = biological target: T3, wt human JAK2, catalytic site (Homo sapiens, UniProt O60674); experiment: HTRF KinEASE assay, JAK2; conditions: assay format not given (Z'-LYTE or HTRF KinEASE); read-out: IC50, Activity Toward JAK2
T3 construct: wt human JAK2, catalytic site; purchased SignalChem
Procedure: Basic protocol for HTRF KinEASE assay (Cisbio/FRA) inhibitor studies involved two steps: • Enzymatic step: Addition of 4 μL of test compound in corresponding DMSO dilutions, 4 μL of kinase/substrate mixture, 2 μL of ATP into 384 well small volume plates. Incubation for at least 30 minutes at room temperature. • Detection step: Addition of 5 μL antibody and 5 μL streptavidin-XL665, read plate after 60 minutes. Data analysis of emission ratios according KinEASE assay protocol.
(§1) Kinase and assay components were adjusted to final concentrations according to kit protocol. For TYK2: 2 nM wt human TYK2, catalytic site (SignalChem/CAN), 1 μM HTRF KinEASE-TK Substrate-biotin, 1 μM ATP in 1× Kinase Buffer. For JAK1: 4 nM wt human JAK1, catalytic site (ThermoFisher/USA), 1 μM HTRF KinEASE-TK Substrate-biotin, 2.5 μM ATP in 1× Kinase Buffer. For JAK2: 1 nM wt human JAK2, catalytic site (SignalChem/CAN), 1 μM HTRF KinEASE-TK Substrate-biotin, 100 μM ATP in 1× Kinase Buffer.
as §1

T2 sequence (P23458 875-1153 limits assumed): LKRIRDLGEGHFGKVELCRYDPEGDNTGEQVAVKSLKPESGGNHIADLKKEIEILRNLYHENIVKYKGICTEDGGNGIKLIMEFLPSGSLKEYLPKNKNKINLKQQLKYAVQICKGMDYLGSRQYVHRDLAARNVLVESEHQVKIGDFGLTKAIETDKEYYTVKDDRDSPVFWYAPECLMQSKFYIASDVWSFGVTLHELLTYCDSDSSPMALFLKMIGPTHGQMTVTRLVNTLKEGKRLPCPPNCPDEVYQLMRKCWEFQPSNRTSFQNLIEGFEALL
T3 sequence (O60674 849-1124 limits assumed): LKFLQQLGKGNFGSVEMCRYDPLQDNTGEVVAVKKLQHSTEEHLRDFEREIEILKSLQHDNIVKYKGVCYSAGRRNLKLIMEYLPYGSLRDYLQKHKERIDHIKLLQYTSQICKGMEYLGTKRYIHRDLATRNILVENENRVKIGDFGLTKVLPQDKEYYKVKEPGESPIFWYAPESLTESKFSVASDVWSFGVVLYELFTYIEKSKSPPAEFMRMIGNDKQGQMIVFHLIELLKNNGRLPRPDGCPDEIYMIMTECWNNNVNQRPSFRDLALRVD

Row | Structure (SMILES) | IC50 [1] [µM] | IC50 [2] [µM] | IC50 [3] [µM]
1 | N#Cc1cccc(F)c1-n1nc(Nc2ccc(C(=O)N3CC[C@@H](F)C3)cc2)c(C(N)=O)n1 [compound 164, (R)-2-(2-cyano-6-fluorophenyl)-5-((4-(3-fluoropyrrolidine-1-carbonyl)phenyl)amino)-2H-1,2,3-triazole-4-carboxamide] | 0.01 to 0.1 | 0.01 to 0.1 | 0.1 to 1
2 | N#CC1CN(C(=O)c2ccc(Nc3nn(-c4c(Cl)cccc4Cl)nc3C(N)=O)cc2)C1 [compound 107, 5-[4-(3-Cyano-azetidine-1-carbonyl)-phenylamino]-2-(2,6-dichloro-phenyl)-2H-[1,2,3]triazole-4-carboxylic acid amide] | < 0.01 | 0.1 to 1 | 0.1 to 1
3 | N#Cc1cccc(Cl)c1-n1nc(Nc2ccc(C(=O)N3CC[C@@H](F)C3)cc2)c(C(N)=O)n1 [compound 162, (R)-2-(2-chloro-6-cyanophenyl)-5-((4-(3-fluoropyrrolidine-1-carbonyl)phenyl)amino)-2H-1,2,3-triazole-4-carboxamide] | < 0.01 | 0.01 to 0.1 | 0.1 to 1
4 | NC(=O)c1nn(-c2c(Cl)cccc2Cl)nc1Nc1ccc(C(=O)N2CCS(=O)(=O)CC2)cc1 [compound 163, 2-(2,6-dichlorophenyl)-5-((4-(1,1-dioxidothiomorpholine-4-carbonyl)phenyl)amino)-2H-1,2,3-triazole-4-carboxamide] | < 0.01 | < 0.01 | 0.1 to 1
5 | Cn1ncnc1-c1ccc(Nc2cn(-c3c(Cl)cccc3Cl)nc2C(N)=O)cc1 [compound 96, 1-(2,6-dichlorophenyl)-4-((4-(1-methyl-1H-1,2,4-triazol-5-yl)phenyl)amino)-1H-pyrazole-3-carboxamide] | 0.01 to 0.1 | 0.01 to 0.1 | 0.1 to 1
6 | N#Cc1cccc(Cl)c1-n1cc(Nc2ccc(C(=O)N3CCS(=O)(=O)CC3)cc2)c(C(N)=O)n1 [compound 457, 1-(2-chloro-6-cyanophenyl)-4-((4-(1,1-dioxidothiomorpholine-4-carbonyl)phenyl)amino)-1H-pyrazole-3-carboxamide] | < 0.01 | 0.01 to 0.1 | 0.1 to 1
7 | NC(=O)c1nn(-c2c(Cl)cccc2Cl)cc1Nc1ccc(-c2nncn2CC(F)(F)F)cc1 [compound 210, 1-(2,6-dichlorophenyl)-4-((4-(4-(2,2,2-trifluoroethyl)-4H-1,2,4-triazol-3-yl)phenyl)amino)-1H-pyrazole-3-carboxamide] | 0.01 to 0.1 | 0.1 to 1 | 0.1 to 1
8 | NC(=O)c1nn(-c2c(Cl)cccc2Cl)nc1Nc1ccc(OC2CCNCC2)cc1 [Compound No. 120, 2-(2,6-dichlorophenyl)-5-((4-(piperidin-4-yloxy)phenyl)amino)-2H-1,2,3-triazole-4-carboxamide] | 0.01 to 0.1 | 0.01 to 0.1 | 0.1 to 1
9 | CN=S1(=O)CCN(C(=O)c2ccc(Nc3nn(-c4c(Cl)cccc4Cl)nc3C(N)=O)cc2)CC1 [compound 171, 2-(2,6-dichlorophenyl)-5-((4-(1-(methylimino)-1-oxidothiomorpholine-4-carbonyl)phenyl)amino)-2H-1,2,3-triazole-4-carboxamide] | < 0.01 | < 0.01 | 0.1 to 1
10 | NC(=O)c1nn(-c2c(Cl)ccc(F)c2Cl)nc1Nc1ccc(C(=O)N2CCOCC2)cc1 [compound 138, 2-(2,6-dichloro-3-fluorophenyl)-5-((4-(morpholine-4-carbonyl)phenyl)amino)-2H-1,2,3-triazole-4-carboxamide] | 0.01 to 0.1 | < 0.01 | 0.1 to 1
11 | NC(=O)c1nn(-c2c(Cl)cccc2Cl)nc1Nc1ccc(C(=O)N2CC(O)C2)cc1 [compound 124, 2-(2,6-dichlorophenyl)-5-((4-(3-hydroxyazetidine-1-carbonyl)phenyl)amino)-2H-1,2,3-triazole-4-carboxamide] | < 0.01 | 0.01 to 0.1 | 0.1 to 1
12 | NC(=O)c1nn(-c2c(Cl)ccc(F)c2F)nc1Nc1ccc(C(=O)N2CC[C@@H](F)C2)cc1 [compound 167, (R)-2-(6-chloro-2,3-difluorophenyl)-5-((4-(3-fluoropyrrolidine-1-carbonyl)phenyl)amino)-2H-1,2,3-triazole-4-carboxamide] | 0.01 to 0.1 | 0.01 to 0.1 | 0.1 to 1
13 | CC(C)n1ncnc1-c1ccc(Nc2cn(-c3c(Cl)cccc3Cl)nc2C(N)=O)cc1 [compound 90, 1-(2,6-dichlorophenyl)-4-((4-(1-isopropyl-1H-1,2,4-triazol-5-yl)phenyl)amino)-1H-pyrazole-3-carboxamide] | 0.01 to 0.1 | 0.1 to 1 | 0.1 to 1
14 | NC(=O)c1nn(-c2c(F)ccc(F)c2Cl)nc1Nc1ccc(C(=O)N2CC[C@@H](F)C2)cc1 [compound 147, (R)-2-(2-chloro-3,6-difluorophenyl)-5-((4-(3-fluoropyrrolidine-1-carbonyl)phenyl)amino)-2H-1,2,3-triazole-4-carboxamide] | 0.01 to 0.1 | < 0.01 | 0.1 to 1
15 | Cn1nnnc1-c1ccc(Nc2cn(-c3c(Cl)cccc3Cl)nc2C(N)=O)cc1 [compound 238, 1-(2,6-dichlorophenyl)-4-((4-(1-methyl-1H-tetrazol-5-yl)phenyl)amino)-1H-pyrazole-3-carboxamide] | < 0.01 | 0.01 to 0.1 | 0.1 to 1
16 | NC(=O)c1nn(-c2c(Cl)ccc(F)c2Cl)nc1Nc1ccc(C(=O)N2CC[C@@H](F)C2)cc1 [compound 145, (R)-2-(2,6-dichloro-3-fluorophenyl)-5-((4-(3-fluoropyrrolidine-1-carbonyl)phenyl)amino)-2H-1,2,3-triazole-4-carboxamide] | 0.01 to 0.1 | < 0.01 | 0.1 to 1
17 | CN1CCC(Oc2ccc(Nc3nn(-c4c(Cl)cccc4Cl)nc3C(N)=O)cc2)CC1 [compound 114, 2-(2,6-dichlorophenyl)-5-((4-((1-methylpiperidin-4-yl)oxy)phenyl)amino)-2H-1,2,3-triazole-4-carboxamide] | < 0.01 | < 0.01 | 0.1 to 1
18 | NC(=O)c1nn(-c2c(Cl)cccc2Cl)cc1Nc1ccc(C(=O)N2CCCC2)cc1 [compound 94, 1-(2,6-dichlorophenyl)-4-((4-(pyrrolidine-1-carbonyl)phenyl)amino)-1H-pyrazole-3-carboxamide] | 0.01 to 0.1 | 0.01 to 0.1 | 0.1 to 1
19 | NC(=O)c1nn(-c2c(Cl)cccc2Cl)nc1Nc1ccc(-c2nnc3n2CCCC3)cc1 [compound 109, 2-(2,6-Dichloro-phenyl)-5-[4-(5,6,7,8-tetrahydro-[1,2,4]triazolo[4,3-a]pyridin-3-yl)-phenylamino]-2H-[1,2,3]triazole-4-carboxylic acid amide] | < 0.01 | 0.01 to 0.1 | 0.1 to 1
20 | Cn1cnnc1-c1ccc(Nc2nn(-c3c(Cl)cccc3Cl)nc2C(N)=O)cc1 [compound 117, 2-(2,6-dichlorophenyl)-5-((4-(4-methyl-4H-1,2,4-triazol-3-yl)phenyl)amino)-2H-1,2,3-triazole-4-carboxamide] | 0.01 to 0.1 | 0.01 to 0.1 | 0.1 to 1
21 | NC(=O)c1nn(-c2c(Cl)cccc2Cl)cc1Nc1ccc(C(=O)N2CCS(=O)(=O)CC2)cc1 [compound 451, 1-(2,6-dichlorophenyl)-4-((4-(1,1-dioxidothiomorpholine-4-carbonyl)phenyl)amino)-1H-pyrazole-3-carboxamide] | < 0.01 | < 0.01 | 0.1 to 1
